“Also recorded” adds a separate entry of the source. Counter-ions that a name gives are not always drawn.
Tests used:
ARPE-19 cells = system: ARPE-19 cells
Method: The major serious risk to long term administration of hydroxychloroquine is retinal accumulation and subsequent ocular toxicity (Terahi et al, 2008. Semin Opthal. (3):201-208. PMID). The ocular deposition of HCQ, DHCQ, and BDCQ was evaluated by direct retinal cellular toxicity by incubating equivalent concentrations of these molecules with the retinal pigmented epithelial cell line ARPE-19. ARPE-19 is a human retinal pigment epithelial cell line with differentiated properties (Dunn et al., Exp Eye Res. 1996 62(2):155-69). ARPE-19 cells were grown to 90% confluence, and then exposed to 10 µg/ml of HCQ, DHCQ, BDCQ, or vehicle control for 24 hours, following which microscopic analysis and photomicroscopy was performed at 40× power.
As described above, ARPE-19 cells were grown to 90% confluence then exposed to 10 μg/ml HCQ, DHCQ, BDCQ, or vehicle control for 24 hours followed by quantitation of cell death by lactate dehydrogenase (LDH) release assay (Abcam).

[1] = system: diet-induced obesity in C57BL/6 mice; assay: Mouse diet-induced obesity: type II diabetes, hyperlipidemia and metabolic syndrome; type: in vivo; conditions: 10 mg/kg/day, 6 weeks, vs vehicle; for blood glucose: two-tailed T test
Method: To evaluate treatment with DHCQ and HCQ on a mouse model of diet-induced type II diabetes, hyperlipidemia and metabolic syndrome, C57BL/6 mice (8 per group) were fed a high-fat “western-style” diet (60% caloric content from fat; Taconic). In an analogous fashion to that in Example 6, two weeks following initiation of the high-fat diet groups of mice were initiated on treatment with vehicle control, HCQ (10 mg/kg/day) or the HCQ metabolites DHCQ (10 mg/kg/day), DCQ (10 mg/kg/day), or BDCQ (10 mg/kg/day). After 6 weeks of treatment, blood was collected for analysis of glucose, triglyceride, and cholesterol levels.

[2] = system: collagen-induced arthritis (CIA) in DBA/1 mice; assay: Collagen-induced arthritis (CIA) mouse model for RA, treatment from first immunization; type: in vivo; conditions: 50 mg/kg/day oral gavage, 100 mg/kg/day loading day 14-21; vs vehicle, Mann Whitney U test P<0.05
retinal toxicity = conditions: cited from earlier work
[3] = system: DMM-induced OA in C57BL6 (B6) mice; assay: Destabilization of the medial meniscus (DMM) mouse model of osteoarthritis; type: in vivo; conditions: aminoquinolines 100 mg/kg/day, atorvastatin 40 mg/kg/day, oral gavage from 1 week after DMM, 3 months; vs vehicle, two-tailed T test
Method: One week following surgical induction, treatment was initiated with vehicle control, hydroxychloroquine (HCQ), or desethylhydroxychloroquine (DHCQ) dosed at 100 mg/kg/day by oral gavage (once per day). After 3 months, mice were sacrificed, joints harvested, joint sections cut, and tissue sections stained with safranin-O. An examiner blinded to treatment used microscopy to score the severity of OA. The “Cartilage Degeneration Score” (also known as the “OA score”, “Severity Score” and “Histology Score”) was determined by a blinded examiner, and the two-tailed T test used to determine if there were statistical differences in the Cartilage Degeneration Scores between groups.
The histologic sections generated at the termination of the mouse OA experiment presented above and in FIG. 5 were subject to blinded scoring for the “Osteophyte Score” (measure of the amount of osteophyte or ectopic bone formation) and “Synovitis Score” (measure of the amount of synovial and joint inflammation). The scores between groups were compared by two-tailed T test.
Experiments were performed under protocols approved by the Stanford University Committee of Animal Research and in accordance with NIH guidelines. Murine OA was generated by surgically by destabilization of the DMM (Glasson, S., S., et al., Osteoarthritis Cartilage, 15: 1061-1069 (2007)).
Mice were euthanized 3 months after surgery. Their stifle joints were decalcified in EDTA solution, fixed in 4% paraformaldehyde, and embedded in paraffin. Serial 4 micron sections were cut and stained with toluidine blue. Scoring of arthritis in these histology sections was done according to a modified version of previously described composite scoring systems (Kamekura, S., et al. Osteoarthritis Cartilage 13: 632-641 (2005); Bendele, A. M., J Musculoskelet Neuronal Interact., 1: 363-376 (2001)). The “OA Score” was calculated as follows: cartilage degeneration (0-4) was multiplied by the width (1=1/3, 2=2/3, and 3=3/3 of surface area) of each third of the femoral-medial and tibial-medial condyles, and the scores for the 6 regions were summed. To evaluate osteophyte (ectopic bone) formation, we scored toluidine-blue-stained sections according to a previously described scoring system (Kamekura, S., et al. Osteoarthritis development in novel experimental mouse models induced by knee joint instability. Osteoarthritis Cartilage 13, 632-641 (2005)): 0, none; 1, formation of cartilage-like tissues; 2, increase of cartilaginous matrix; 3, endochondral ossification. To evaluate synovitis, we scored H&E-stained sections according to a previously described scoring system (Blom, A. B., et al. Synovial lining macrophages mediate osteophyte formation during experimental osteoarthritis. Osteoarthritis Cartilage 12, 627-635 (2004)): 0, no changes compared to normal joints; 1, thickening of the synovial lining and some influx of inflammatory cells; 2, thickening of the synovial lining and intermediate influx of inflammatory cells; and 3, profound thickening of the synovial lining (more than four cell layers) and maximal observed influx of inflammatory cells. Scores for osteophyte formation and synovitis were recorded for the femoral-medial and the tibial-medial condyles on the operated side of the joint, and the scores for the two regions were summed and statistical comparisons performed using a two-tailed T test.
Treatment was started 1 week after surgical induction of destabilization of the medial meniscus (DMM), a time point at which mice were at increased risk for the development of OA.

| Structure (SMILES) | total cholesterol [1] | triglycerides [1] | blood glucose [1] | arthritis score (development of disease and disease activity) [2] | other results |
| --- | --- | --- | --- | --- | --- |
| CC(CCCN)Nc1ccnc2cc(Cl)ccc12 (centres unmarked) [BDCQ, bisdesethylchloroquine] | did not result in statistical reductions | did not result in statistical reductions | did not result in statistical reductions in blood glucose | not associated with statistical protection or reduction in disease severity | ARPE-19 cellular toxicity by microscopy (ARPE-19 cells): increased cytotoxicity and death |
| CCNCCCC(C)Nc1ccnc2cc(Cl)ccc12 (centres unmarked) [DCQ, desethylchloroquine] | did not result in statistical reductions | did not result in statistical reductions | did not result in statistical reductions in blood glucose | not associated with statistical protection or reduction in disease severity |  |
| CCN(CCO)CCCC(C)Nc1ccnc2cc(Cl)ccc12 (centres unmarked) [HCQ sulfate, hydroxychloroquine sulfate] |  |  |  |  | incidence of retinal toxicity after 5 years (retinal toxicity; treated humans, conventional doses): 0.5-1%; incidence of retinal toxicity after 10-15 years (retinal toxicity; treated humans): approximately 2%; physician discontinuation for earlier eye problems over 5 years (retinal toxicity; treated patients): ~7% |
| CC(C)c1c(C(=O)Nc2ccccc2)c(-c2ccccc2)c(-c2ccc(F)cc2)n1CC[C@@H](O)C[C@@H](O)CC(=O)O [atorvastatin, reference compound] |  |  |  |  | Cartilage Degeneration Score (OA score) [3]: only resulted in trends towards improvement; also recorded: did not result in a statistically significant reduction in the severity of OA |
| CCN(CC)CCCC(C)Nc1ccnc2cc(Cl)ccc12 (centres unmarked) [chloroquine] |  |  |  |  | rates of retinal toxicity relative to HCQ (retinal toxicity; in vivo): Considerably higher rates of toxicity |
